Assay results reported in patent publication US20180000745A1, “CRUCIFERIN COATED NANOPARTICLES” (priority 2016, published 2018).

Tested on: Caco-2 cells
Assay: Cell uptake of coumarin-6-loaded particles by confocal microscopy
Type: cell-based
Settings: 6 h incubation; particles 0.5 mg/mL, coumarin-6 […] in DMEM
Procedure: To study the cell uptake of nanoparticles in Caco-2 cells, coumarin-6, as a fluorescent marker, was encapsulated into the nanoparticles. The cellular uptake of coumarin-6-loaded nanoparticles was compared with free coumarin-6 (not encapsulated). In brief, 1 mL of coumarin-6 solution in ethanol at concentrations ranging from 10 to 400 μg/mL was mixed with 9 mL 2 mg/mL chitosan solution in 0.1 M acetic acid. 9 mL of 5 mg/mL cruciferin solution (solubilized at pH 12) was added dropwise to the solution while stirring. The pH of the suspension was adjusted to 5.5, stirred for 2 h and then centrifuged at 40000 g and 4° C. for 30 min, Loaded particles pellet was collected, washed twice with water and centrifuged to remove free coumarin-6. The labelled particles were re-suspended in DMEM medium at concentrations of 0.1, 0.5 and 1 mg/mL. The size and zeta potential of the re-suspended particles were measured. Caco-2 cells (10^5 cells/well) were seeded on cover glasses placed in 6-well plates (Costar, Corning, N.Y.), and incubated until cells were about 80% confluent. 2.5 mL of labelled-particles suspensions or free coumarin-6 solution in DMEM medium was added to each well and incubated for 6 h at 37° C. Then, the cells were washed three times with PBS to remove free nanoparticles and coumarin-6. Cell membranes were stained with 10 μg/mL Alexa Fluor 594-Concanavalin A conjugate in PBS for 10 min. […]

## CCN(CC)c1ccc2cc(-c3nc4ccccc4s3)c(=O)oc2c1 [free coumarin-6, Coumarin 6]
  fluorescence within cells (cell uptake): no noticeable signal was detected
